Laboratory results taken from patent US4072574A, “System for in vitro assay for mutagenicity and/or carcinogenicity of chemicals or other exogenous agents” (priority 1976, dated 1978).

Legend:
AMV DNA polymerase [1] = experiment: Fidelity of in vitro DNA synthesis (error frequency) with AMV DNA polymerase copying synthetic polynucleotide templates; settings: for Class: Table 1, classes 1-3 not defined
Text: In this invention, the ability of carcinogens to decrease the fidelity of in vitro DNA synthesis will be used to screen for carcinogenic or mutagenic agents. The system uses synthetic polynucleotides of defined composition which may be copied in the test tubes with procaryotic, eucaryotic or viral DNA polymerases. The use of synthetic polynucleotides of defined composition allows the measurement of the simultaneous incorporation of the correct, complementary nucleotide and an incorrect, non-complementary nucleotide. The correct nucleotide is labeled with [α-^32 P] of low specific activity and the incorrect nucleotide is labeled with [^3 H] of high specific activity. Through this double labeled reaction it is possible to determine the simultaneous incorporation of both nucleotides and thus to determine an error frequency. The error frequency may be defined as the ratio of the incorrect/correct nucleotide incorporation. Agents which increase this error frequency may be scored as positive. […] Agents which score positive would be checked using different templates to underscore the positive results. In this system different polymerases will be used as well as different templates. One would expect that most carcinogens would change the fidelity of DNA synthesis with different polymerases as well as with different templates though this need not be the case.
Each assay will consist of a polymerase, a polynucleotide template that only contains one or two nucleotides, a complementary nucleotide and a non-complementary nucleotide as well as magnesium. Both of the nucleotides will be labeled by radioactive precursors and the ratio between the two is to be used for a measure of error frequency in the system. In instances where a template requires two complementary nucleotides, only one will be radioactively labeled.
Reactions (total volume 0.05 ml) which measured complementary nucleotide incorporation contained 50 mM Tris-HCL (pH 8.0), 20 mM KCl, 5 mM dithiothreitol, 5 mM MgCl2, 2μg BSA, […] [α-^32 P] -dTTP (60 dpm/pmole), 1μg poly (A).oligo (dT) (1:1.5 mass ratio), and 0.45 μg of AMV DNA polymerase. For simultaneous quantitation of complementary and non-complementary nucleotide incorporation each reaction was modified to contain 26μM [α-^32 P]dTTP (12 dpm/pmole) and 23μM [^3 H]-dCTP (50,000 dpm/pmole). […] Metals were added directly to the reaction mixture as aqueous solutions of chloride salts. All reactions were incubated for 60 min. at 37° C. Incorporation of radioactive nucleotides into an acid-insoluble and alkali-resistant product was determined by using the precipitation-solubilization procedure as described by Battula and Loeb. All experiments were performed in triplicate and the averages were determined.
In order to determine the effect of different metals on the accuracy of DNA replication, metal cations were added as chloride salts directly to the polymerase reaction. In these experiments, poly (A).oligo (dT) was the template-primer and the simultaneous incorporation of complementary nucleotide, [α-^32 P]-dTMP, and the non-complementery nucleotide, [^3 H]-dCMP, was determined.
The effect of metal salts on the fidelity of DNA synthesis was examined by testing each of the metal salts at a minimum of seven different concentrations.

[2] = known status of the compound; cited from earlier work
AMV DNA polymerase [3] = experiment: Metal requirements for catalysis by AMV DNA polymerase; format: biochemical, avian myeloblastosis virus; settings: poly (A).oligo (dT)
Description: (§1) All known DNA polymerases require either Mg^2+ or Mn^2+ as an added divalent cation for activity. AMV DNA polymerase used Mg^2+ as an added divalent cation and the maximum rate of polymerization with poly (A).oligo (dT) was attained at 5 mM Mg^2+. […] Thymidine monophosphate incorporation with Be^2+ was less than 0.3% of that obtained with 5 mM Mg^2+.

[4] = species as printed in the value; cited from earlier work
[5] = system: sea urchin nuclear DNA polymerase; experiment: Fidelity of DNA synthesis with sea urchin nuclear DNA polymerase; format: biochemical; settings: template poly (dA).oligo (dT)
Text: It is one of 15 carcinogens officially listed by the U.S. government as possibly being carcinogenic in humans.

several DNA polymerases = format: biochemical; settings: preliminary results
Description: as §1

[6] = 2 mM added cation + Mg^2+ 5 mM, poly (A).oligo (dT)
[7] = 5 mM added cation + Mg^2+ 5 mM, poly (A).oligo (dT)
[8] = 10 mM added cation + Mg^2+ 5 mM, poly (A).oligo (dT)
[9] = Beryllium Chloride 1 mM, poly (A) . oligo (dT), non-complementary rGTP
[10] = Beryllium Chloride 1 mM, poly (C) . oligo (dG), non-complementary dATP
[11] = Beryllium Chloride 1 mM, poly d(A-T), non-complementary dCTP
[12] = Beryllium Chloride 2 mM, poly (A) . oligo (dT), non-complementary rGTP
[13] = Beryllium Chloride 2 mM, poly (C) . oligo (dG), non-complementary dATP
[14] = Beryllium Chloride 3 mM, poly d(A-T), non-complementary dCTP
[15] = Beryllium Chloride 4 mM, poly (C) . oligo (dG), non-complementary dATP
[16] = Beryllium Chloride 5 mM, poly (A) . oligo (dT), non-complementary rGTP
[17] = Beryllium Chloride 5 mM, poly (C) . oligo (dG), non-complementary dATP
[18] = Beryllium Chloride 5 mM, poly d(A-T), non-complementary dCTP
[19] = Beryllium Chloride 10 mM, poly (A) . oligo (dT), non-complementary rGTP

SMILES: [Be+2].[Cl-].[Cl-] [BeCl2, beryllium chloride]
- Complementary Nucleotide (pmoles dTMP) (AMV DNA polymerase [1]; [6]): 291 pmol
- Non-Complementary Nucleotide (pmoles dCMP) (AMV DNA polymerase [1]; [6]): 0.372 pmol
- Error Frequency (AMV DNA polymerase [1]; 2 mM added cation + Mg^2+ 5 mM, poly (A).oligo (dT), dCMP/dTMP): 1/782
- Complementary Nucleotide (pmoles dTMP) (AMV DNA polymerase [1]; [7]): 133 pmol
- Non-Complementary Nucleotide (pmoles dCMP) (AMV DNA polymerase [1]; [7]): 0.294 pmol
- Error Frequency (AMV DNA polymerase [1]; 5 mM added cation + Mg^2+ 5 mM, poly (A).oligo (dT), dCMP/dTMP): 1/453
- Complementary Nucleotide (pmoles dTMP) (AMV DNA polymerase [1]; [8]): 8.6 pmol
- Non-Complementary Nucleotide (pmoles dCMP) (AMV DNA polymerase [1]; [8]): 0.114 pmol
- Error Frequency (AMV DNA polymerase [1]; 10 mM added cation + Mg^2+ 5 mM, poly (A).oligo (dT), dCMP/dTMP): 1/75
- Complementary Nucleotide Incorporation (AMV DNA polymerase [1]; [9]): 568 pmol
- Error Frequency (AMV DNA polymerase [1]; [9]): 1/6104
- Non-Complementary Nucleotide Incorporation (AMV DNA polymerase [1]; [9]): 0.093 pmol
- Complementary Nucleotide Incorporation (AMV DNA polymerase [1]; [10]): 181 pmol
- Error Frequency (AMV DNA polymerase [1]; [10]): 1/1649
- Non-Complementary Nucleotide Incorporation (AMV DNA polymerase [1]; [10]): 0.110 pmol
- Complementary Nucleotide Incorporation (AMV DNA polymerase [1]; [11]): 209 pmol
- Error Frequency (AMV DNA polymerase [1]; [11]): 1/1306
- Non-Complementary Nucleotide Incorporation (AMV DNA polymerase [1]; [11]): 0.160 pmol
- Complementary Nucleotide Incorporation (AMV DNA polymerase [1]; [12]): 503 pmol
- Error Frequency (AMV DNA polymerase [1]; [12]): 1/2704
- Non-Complementary Nucleotide Incorporation (AMV DNA polymerase [1]; [12]): 0.186 pmol
- Complementary Nucleotide Incorporation (AMV DNA polymerase [1]; [13]): 81 pmol
- Error Frequency (AMV DNA polymerase [1]; [13]): 1/1025
- Non-Complementary Nucleotide Incorporation (AMV DNA polymerase [1]; [13]): 0.079 pmol
- Complementary Nucleotide Incorporation (AMV DNA polymerase [1]; [14]): 137 pmol
- Error Frequency (AMV DNA polymerase [1]; [14]): 1/979
- Non-Complementary Nucleotide Incorporation (AMV DNA polymerase [1]; [14]): 0.140 pmol
- Complementary Nucleotide Incorporation (AMV DNA polymerase [1]; [15]): 57 pmol
- Error Frequency (AMV DNA polymerase [1]; [15]): 1/919
- Non-Complementary Nucleotide Incorporation (AMV DNA polymerase [1]; [15]): 0.062 pmol
- Complementary Nucleotide Incorporation (AMV DNA polymerase [1]; [16]): 128 pmol
- Error Frequency (AMV DNA polymerase [1]; [16]): 1/487
- Non-Complementary Nucleotide Incorporation (AMV DNA polymerase [1]; [16]): 0.263 pmol
- Complementary Nucleotide Incorporation (AMV DNA polymerase [1]; [17]): 64 pmol
- Error Frequency (AMV DNA polymerase [1]; [17]): 1/831
- Non-Complementary Nucleotide Incorporation (AMV DNA polymerase [1]; [17]): 0.077 pmol
- Complementary Nucleotide Incorporation (AMV DNA polymerase [1]; [18]): 97 pmol
- Error Frequency (AMV DNA polymerase [1]; [18]): 1/689
- Non-Complementary Nucleotide Incorporation (AMV DNA polymerase [1]; [18]): 0.140 pmol
- Complementary Nucleotide Incorporation (AMV DNA polymerase [1]; [19]): 52 pmol
- Error Frequency (AMV DNA polymerase [1]; [19]): 1/149
- Non-Complementary Nucleotide Incorporation (AMV DNA polymerase [1]; [19]): 0.349 pmol
- Class (AMV DNA polymerase [1]; template poly (A).oligo (dT)): 1
- effect on error frequency (in words) (AMV DNA polymerase [1]; poly (A).oligo (dT), dTMP complementary, dCMP non-complementary): error frequency increased
- Metal Concentration which yielded the largest observed change in error rate (AMV DNA polymerase [1]; template poly (A).oligo (dT)): 10 mM
- effect on the fidelity of DNA synthesis (in words) (AMV DNA polymerase [1]; various templates): decreases the fidelity
- Carcinogen or Mutagen [2]: +
- Thymidine monophosphate incorporation relative to that obtained with 5 mM Mg^2+ (AMV DNA polymerase [3]; Be^2+ in the absence of Mg^2+, 60 min): less than 0.3%
- ability to substitute for Mg^2+ as added divalent cation (AMV DNA polymerase [3]; absence of Mg^2+, Be^2+ up to 15 mM): did not result in detectable poly (dT) synthesis
- carcinogenicity in animals [4]: induces pulmonary carcinomas in monkey and osteogenic sarcomas in rabbits

SMILES: O=C1CCO1 [β-propiolactone]
- effect on the fidelity of DNA synthesis (in words) [5]: decreases the fidelity
- effect on the fidelity of DNA synthesis (in words) (AMV DNA polymerase [1]; template poly (dA).oligo (dT)): decreases the fidelity
- carcinogenicity in animals [4]: carcinogen in mice, rats and hamsters

SMILES: [Cl-].[Cl-].[Co+2] [CoCl2]
- Class (AMV DNA polymerase [1]; template poly (C).oligo (dG)): 1
- Metal Concentration which yielded the largest observed change in error rate (AMV DNA polymerase [1]; template poly (C).oligo (dG)): 4 mM
- effect on the fidelity of DNA synthesis (in words) (AMV DNA polymerase [1]; various templates): alter the fidelity
- Carcinogen or Mutagen [2]: +
- metal activator function (several DNA polymerases): serve as metal activators with several DNA polymerases

SMILES: [Cl][Ni][Cl] [NiCl2]
- Class (AMV DNA polymerase [1]; template poly (C).oligo (dG)): 1
- Metal Concentration which yielded the largest observed change in error rate (AMV DNA polymerase [1]; template poly (C).oligo (dG)): 8 mM
- effect on the fidelity of DNA synthesis (in words) (AMV DNA polymerase [1]; various templates): alter the fidelity
- metal activator function (several DNA polymerases): serve as metal activators with several DNA polymerases
